# Experimental data from PMC7098370 (Toxicological Sciences, 2020).
# Marks after values point to notes of the source that are not given here.
# Legend:
# rats = assay: Acute oral toxicity testing; type: in vivo, rat
# [1] = Bioelution in simulated gastric fluid; conditions: simulated gastric fluid pH 1.5, 2 h, 37°C
# Crl:CD(SD) rats [2] = assay: Combined RDT study with reproduction/developmental toxicity screening test; type: in vivo, rat; conditions: for mean body weight of pups below the control: high dose
# Crl:CD(SD) rats [3] = assay: Subchronic 90-day oral RDT study with reproductive toxicity screening; type: in vivo, rat
# [4] = Bioelution in simulated intestinal fluid; conditions: simulated intestinal fluid pH 7.4, 24 h
# [5] = Plasma toxicokinetic study; type: in vivo, rat; conditions: for C max / K el / t 1/2: 300 mg test item/kg PO
# [6] = Mass balance study: urinary and fecal Co excretion after single oral gavage; type: in vivo, rat; conditions: single oral bolus 300 mg/kg bw (220 mg Co/kg bw), 72 h
# Crl:CD(SD) rats [7] = assay: Benchmark dose modeling; set-up: species or system rat; conditions: nonconstant variance
# [8] = females, 73.4 mg Co/kg bw/day, end of 90-day oral exposure, experimental group
# [9] = females, 220 mg Co/kg bw/day, end of 90-day oral exposure, experimental group
# [10] = females, 734 mg Co/kg bw/day, end of 90-day oral exposure, experimental group
# [11] = females, 734 mg Co/kg bw/day, recovery group, end of 28-day recovery period
# [12] = females, 734 mg Co/kg bw/day, recovery group, end of 90-day oral exposure
# [13] = males, 73.4 mg Co/kg bw/day, end of 90-day oral exposure, experimental group
# [14] = males, 220 mg Co/kg bw/day, end of 90-day oral exposure, experimental group
# [15] = males, 734 mg Co/kg bw/day, end of 90-day oral exposure, experimental group
# [16] = males, 734 mg Co/kg bw/day, recovery group, end of 28-day recovery period
# [17] = males, 734 mg Co/kg bw/day, recovery group, end of 90-day oral exposure
# [18] = female HGB dataset, Exponential 5 model
# [19] = male PLT dataset, Exponential 2 model
compound,measurement,setting,value
"[O]=[Co].[O]=[Co][O][Co]=[O] [Co3O4, Tricobalt tetraoxide]",Acute LD50 (mg Co/kg bw),rats; OECD 401 or 425,> 8076 mg Co/kg bw
same,Acute LD50 (mg substance/kg bw),rats; OECD 401 or 425,exceeding 11 000 mg substance/kg bw
same,Acute LD50 (mg substance/kg bw),"rats; OECD 401 or 425, listed as Tricobalt Tetraoxide",> 11 000 mg substance/kg bw
same,"Bioelution of Co in gastric fluid (% release), 2 h",[1],0.2 % release
same,"Bioelution of Co in gastric fluid / cobalt release (µg Co/g sample), 2 h",[1],1460 µg Co/g sample
same,food intake of dams reduced compared with the control,"Crl:CD(SD) rats [2]; 220 mg Co/kg bw/day, lactation day 1",30%
same,mean body weight of pups below the control,Crl:CD(SD) rats [2]; lactation day 0/1,up to 18%
same,mean body weight of pups below the control,Crl:CD(SD) rats [2]; lactation day 4,up to 21%
same,premature deaths,"Crl:CD(SD) rats [2]; oral gavage, all doses",None of the animals died prematurely
same,NOAEL (F0 generation),"Crl:CD(SD) rats [2]; oral gavage, rats",734 mg Co/kg bw/day
same,NOAEL (F1 generation),"Crl:CD(SD) rats [2]; oral gavage, rats",220 mg Co/kg bw/day
same,NOAEL (reproductive toxicity),"Crl:CD(SD) rats [2]; oral gavage, rats",> 734 mg test item/kg bw/day
same,premature deaths,"Crl:CD(SD) rats [3]; 90-day oral gavage, all doses",None of the animals died prematurely
same,LOAEL (systemic),"Crl:CD(SD) rats [3]; 90-day oral gavage, rats",734 mg Co/kg bw/day
same,NOAEL,"Crl:CD(SD) rats [3]; 90-day oral gavage, rats",220 mg Co/kg bw/day
same,NOAEL (reproductive),"Crl:CD(SD) rats [3]; 90-day oral gavage, rats",> 734 mg Co/kg bw/day
same,"HCT, %Diff vs control",Crl:CD(SD) rats [3]; [8],−0.6%
same,"HCT, mean",Crl:CD(SD) rats [3]; [8],44.76%
same,"HGB, %Diff vs control",Crl:CD(SD) rats [3]; [8],+0.2%
same,"HGB, mean",Crl:CD(SD) rats [3]; [8],9.51 mmol/L
same,"RBC, mean",Crl:CD(SD) rats [3]; [8],8.17 ×10E6/µl
same,"HCT, %Diff vs control",Crl:CD(SD) rats [3]; [9],+4.4%
same,"HCT, mean",Crl:CD(SD) rats [3]; [9],46.99%
same,"HGB, %Diff vs control",Crl:CD(SD) rats [3]; [9],+5.9%
same,"HGB, mean",Crl:CD(SD) rats [3]; [9],10.09 mmol/L
same,"RBC, %Diff vs control",Crl:CD(SD) rats [3]; [9],+5.6%
same,"RBC, mean",Crl:CD(SD) rats [3]; [9],8.74 ×10E6/µl
same,"HCT, %Diff vs control",Crl:CD(SD) rats [3]; [10],+13.9%
same,"HCT, mean",Crl:CD(SD) rats [3]; [10],51.27%
same,"HGB, %Diff vs control",Crl:CD(SD) rats [3]; [10],+16.4%
same,"HGB, mean",Crl:CD(SD) rats [3]; [10],11.09 mmol/L
same,"RBC, %Diff vs control",Crl:CD(SD) rats [3]; [10],+12.9%
same,"RBC, mean",Crl:CD(SD) rats [3]; [10],9.35 ×10E6/µl
same,"HCT, mean",Crl:CD(SD) rats [3]; [11],• 40.76 • .530%
same,"HGB, mean",Crl:CD(SD) rats [3]; [11],• 9.28 • .450 mmol/l
same,"RBC, mean",Crl:CD(SD) rats [3]; [11],• 7.56 • .573 ×10E6/µl
same,"HCT, mean",Crl:CD(SD) rats [3]; [12],• 50.76 ^* • .013%
same,"HGB, mean",Crl:CD(SD) rats [3]; [12],• 10.86 ^* • .032 mmol/l
same,"RBC, mean",Crl:CD(SD) rats [3]; [12],• 9.12 • .17 ×10E6/µl
same,"HCT, %Diff vs control",Crl:CD(SD) rats [3]; [13],+2.6%
same,"HCT, mean",Crl:CD(SD) rats [3]; [13],49.53%
same,"HGB, %Diff vs control",Crl:CD(SD) rats [3]; [13],+2.2%
same,"HGB, mean",Crl:CD(SD) rats [3]; [13],10.29 mmol/L
same,"PLT, %Diff vs control",Crl:CD(SD) rats [3]; [13],+4.2%
same,"PLT, mean",Crl:CD(SD) rats [3]; [13],896.5 ×10E3/µl
same,"RBC, %Diff vs control",Crl:CD(SD) rats [3]; [13],+1.1%
same,"RBC, mean",Crl:CD(SD) rats [3]; [13],9.30 ×10E6/µl
same,"HCT, %Diff vs control",Crl:CD(SD) rats [3]; [14],+9.2%
same,"HCT, mean",Crl:CD(SD) rats [3]; [14],52.73%
same,"HGB, %Diff vs control",Crl:CD(SD) rats [3]; [14],+9.5%
same,"HGB, mean",Crl:CD(SD) rats [3]; [14],11.03 mmol/L
same,"PLT, mean",Crl:CD(SD) rats [3]; [14],796.1 ×10E3/µl
same,"RBC, %Diff vs control",Crl:CD(SD) rats [3]; [14],+9.6%
same,"RBC, mean",Crl:CD(SD) rats [3]; [14],10.08 ×10E6/µl
same,"HCT, %Diff vs control",Crl:CD(SD) rats [3]; [15],+24.2%
same,"HCT, mean",Crl:CD(SD) rats [3]; [15],59.97%
same,"HGB, %Diff vs control",Crl:CD(SD) rats [3]; [15],+25.4%
same,"HGB, mean",Crl:CD(SD) rats [3]; [15],12.63 mmol/L
same,"PLT, mean",Crl:CD(SD) rats [3]; [15],573.9 ×10E3/µl
same,"RBC, %Diff vs control",Crl:CD(SD) rats [3]; [15],+22.7%
same,"RBC, mean",Crl:CD(SD) rats [3]; [15],11.29 ×10E6/µl
same,"HCT, mean",Crl:CD(SD) rats [3]; [16],• 50.38 • .126%
same,"HGB, mean",Crl:CD(SD) rats [3]; [16],• 10.82 • .075 mmol/l
same,"PLT, mean",Crl:CD(SD) rats [3]; [16],• 882.4 • .285 ×10E3/µl
same,"RBC, mean",Crl:CD(SD) rats [3]; [16],• 9.47 • .052 ×10E6/µl
same,"HCT, mean",Crl:CD(SD) rats [3]; [17],• 60.96** • 9.1E−06%
same,"HGB, mean",Crl:CD(SD) rats [3]; [17],• 12.78** • 2.4E−06 mmol/l
same,"PLT, mean",Crl:CD(SD) rats [3]; [17],• 645.6** • .0085 ×10E3/µl
same,"RBC, mean",Crl:CD(SD) rats [3]; [17],• 11.3** • 7.1E−05 ×10E6/µl
same,Bioelution of Co in intestinal fluid (% release),[4],0.05 (24 h) % release
same,Bioelution of Co in intestinal fluid / cobalt release (µg Co/g sample),[4],385 (24 h) µg Co/g sample
same,C max,[5]; females,1.10 ng/mL
same,K el,[5]; females,0.0430 h⁻¹
same,t 1/2,[5]; females,16.1 h
same,C max,[5]; males,2.08 ng/mL
same,K el,[5]; males,0.0402 h⁻¹
same,t 1/2,[5]; males,17.3 h
same,oral bioavailability,"[5]; single oral bolus, rats, males and females not distinguished",below 0.1%
same,Fecal Excretion (%),[6]; females,95.2 % of Co applied
same,Sum of Urinary and Fecal Excretion (%),[6]; females,95.3 % of Co applied
same,Urinary Excretion (%),[6]; females,0.12 % of Co applied
same,Fecal Excretion (%),[6]; males,116.4 % of Co applied
same,Sum of Urinary and Fecal Excretion (%),[6]; males,116.5 % of Co applied
same,Urinary Excretion (%),[6]; males,0.13 % of Co applied
same,BMD1STD,Crl:CD(SD) rats [7]; [18],210 mg Co/kg bw/day
same,BMDL1STD,Crl:CD(SD) rats [7]; [18],115 mg Co/kg bw/day
same,BMD1STD,Crl:CD(SD) rats [7]; [19],317 mg Co/kg bw/day
same,BMDL1STD,Crl:CD(SD) rats [7]; [19],219 mg Co/kg bw/day
